Patent publication US9458414B2, “Cleaning, surfactant, and personal care compositions” (SEGETIS, INC., priority 2012, dated 2016)

What was measured:
Assay type in all cases: physicochemical
[1] = Coupling of water and octanoic acid by hydrotropes (amount producing a single phase)
Method: Hydrotropes were added to a two-component mixture of octanoic acid and deionized (DI) water to find the amount that produced a single phase from the two separate phases of water and octanoic acid.
The percent hydrotrope required to compatibilize phases (and the resulting percent octanoic acid) were calculated and the results are shown in Table 4 as well as FIG. 1.

[2] = Coupling of water and soy methyl ester by hydrotropes
Method: Hydrotropes were added to a two-component mixture of soy methyl ester and DI water to find the amount that produced a single phase from the two separate phases of water and soy methyl ester. The percent hydrotrope required to compatibilize the phases was calculated.

[3] = Coupling of water and castor oil by hydrotropes
[4] = ratio of water:octanoic acid 10:90
[5] = ratio of water:octanoic acid 30:70
[6] = ratio of water:octanoic acid 50:50
[7] = ratio of water:octanoic acid 70:30
[8] = ratio of water:octanoic acid 90:10
[9] = water:octanoic acid 10:90 (DI water 0.5 g, octanoic acid 4.5 g)
[10] = water:octanoic acid 30:70 (DI water 1.5 g, octanoic acid 3.5 g)
[11] = water:octanoic acid 50:50 (DI water 5.0 g, octanoic acid 5.0 g)
[12] = water:octanoic acid 70:30 (DI water 3.5 g, octanoic acid 1.5 g)
[13] = water:octanoic acid 90:10 (DI water 4.5 g, octanoic acid 0.5 g)
[14] = ratio of water:soy methyl esters 10:90
[15] = ratio of water:soy methyl esters 30:70
[16] = ratio of water:soy methyl esters 50:50
[17] = ratio of water:soy methyl esters 70:30
[18] = ratio of water:soy methyl esters 90:10
[19] = ratio of water to castor oil 10:90
[20] = ratio of water to castor oil 30:70
[21] = ratio of water to castor oil 50:50
[22] = ratio of water to castor oil 70:30
[23] = ratio of water to castor oil 90:10

Row | Structure (SMILES) | Wt % Hydrotrope required to compatibilize phases [1, 4] | Wt % Octanoic Acid (resulting, at compatibilization) [1, 4] | Wt % Hydrotrope required to compatibilize phases [1, 5] | Wt % Octanoic Acid (resulting, at compatibilization) [1, 5] | Wt % Hydrotrope required to compatibilize phases [1, 6] | Wt % Octanoic Acid (resulting, at compatibilization) [1, 6] | Wt % Hydrotrope required to compatibilize phases [1, 7] | Wt % Octanoic Acid (resulting, at compatibilization) [1, 7] | Wt % Hydrotrope required to compatibilize phases [1, 8] | Wt % Octanoic Acid (resulting, at compatibilization) [1, 8] | Amount of hydrotrope that produced a single phase [1, 9] | Amount of hydrotrope that produced a single phase [1, 10] | Amount of hydrotrope that produced a single phase [1, 11] | Amount of hydrotrope that produced a single phase [1, 12] | Amount of hydrotrope that produced a single phase [1, 13] | Wt % Hydrotrope required to compatibilize the phases [2, 14] | Wt % Soy Methyl Esters (at compatibilization) [2, 14] | Wt % Hydrotrope required to compatibilize the phases [2, 15] | Wt % Soy Methyl Esters (at compatibilization) [2, 15] | Wt % Hydrotrope required to compatibilize the phases [2, 16] | further results
1 | CCO [ethanol] | 18% | 74% | 37% | 44% | 39% | 31% | 37% | 19% | 36% | 6% | 1.12 grams | 2.95 grams | 3.14 grams | 2.97 grams | 2.87 grams | 54% | 41% | 74% | 18% | 78% | Wt % Soy Methyl Esters (at compatibilization) [2, 16]: 11%; Wt % Hydrotrope required to compatibilize the phases [2, 17]: 80%; Wt % Soy Methyl Esters (at compatibilization) [2, 17]: 6%; Wt % Hydrotrope required to compatibilize the phases [2, 18]: 77%; Wt % Soy Methyl Esters (at compatibilization) [2, 18]: 2%; Wt % Castor oil (at compatibilization) [3, 19]: 40%; Wt % Hydrotrope required to compatibilize phases [3, 19]: 55%; Wt % Castor oil (at compatibilization) [3, 20]: 22%; Wt % Hydrotrope required to compatibilize phases [3, 20]: 69%; Wt % Castor oil (at compatibilization) [3, 21]: 10%; Wt % Hydrotrope required to compatibilize phases [3, 21]: 79%; Wt % Castor oil (at compatibilization) [3, 22]: 5%; Wt % Hydrotrope required to compatibilize phases [3, 22]: 82%; Wt % Castor oil (at compatibilization) [3, 23]: 2%; Wt % Hydrotrope required to compatibilize phases [3, 23]: 84%
2 | COCC(C)O (stereo not shown) [PM, propylene glycol methyl ether] | 18% | 74% | 38% | 43% | 42% | 29% | 42% | 17% | 41% | 6% | 1.09 grams | 3.12 grams | 3.62 grams | 3.68 grams | 3.44 grams | 51% | 44% | 67% | 25% | 77% | Wt % Soy Methyl Esters (at compatibilization) [2, 16]: 11%; Wt % Hydrotrope required to compatibilize the phases [2, 17]: 81%; Wt % Soy Methyl Esters (at compatibilization) [2, 17]: 5%; Wt % Hydrotrope required to compatibilize the phases [2, 18]: 77%; Wt % Soy Methyl Esters (at compatibilization) [2, 18]: 2%; Wt % Castor oil (at compatibilization) [3, 19]: 36%; Wt % Hydrotrope required to compatibilize phases [3, 19]: 61%; Wt % Castor oil (at compatibilization) [3, 20]: 26%; Wt % Hydrotrope required to compatibilize phases [3, 20]: 65%; Wt % Castor oil (at compatibilization) [3, 21]: 12%; Wt % Hydrotrope required to compatibilize phases [3, 21]: 76%; Wt % Castor oil (at compatibilization) [3, 22]: 5%; Wt % Hydrotrope required to compatibilize phases [3, 22]: 81%; Wt % Castor oil (at compatibilization) [3, 23]: 2%; Wt % Hydrotrope required to compatibilize phases [3, 23]: 83%
